PMC10119282, “Molecular characterization of AIFM2/FSP1 inhibition by iFSP1-like molecules” (Cell Death & Disease, 2023)

Columns and labels:
Type in all cases: cell-based, murine
[1] = tested on: Pfa1 Gpx4−/− overexpressing chimeric FSP1 C4; test: Cell viability (Alamar blue), chimeric construct C4; conditions: Mus musculus; chimeric construct C4 (human residues 181 to 240); x axis iFSP1 (μM); read-out: IC50 (dose-response toxicity)
Method: (§1) Cell Lines. 4-hydroxytamoxifen (TAM)-inducible Gpx4^−/− murine immortalized fibroblasts (Pfa1) were reported previously. These cells harbor two loxP-flanked Gpx4 alleles and stably express TAM inducible Cre recombinase allowing the genetic deletion of Gpx4 at will. For all experiments using Gpx4^−/− the well were treated with 4-hydroxitamoxifen (TAM) 1 µM. All cells were cultured with were cultured in DMEM-high glucose (4.5 g glucose/L) with 10% fetal bovine serum (FBS), Glutamax, and 1% penicillin/streptomycin (Gibco, Thermo Fischer) at 37 °C with 5% CO2 and verified to be negative for mycoplasma.
(§2) Cell viability assays. Alamar Blue method: Cells were seeded on 96-well plates (2000 cells per well) and treated with the compounds RSL3, iFSP1 and (liproxstatin-1) after plating. Cell viability was assessed 48 h (unless stated otherwise) after treatment using Alamar Blue as an indicator of viable cells. Alamar blue solution was made by dissolving of 1 g resazurin sodium salt (Thermo Fischer) in 200 mL sterile PBS and sterile filtrated through a 0.22 µm filter. Stock solutions were stored at 4 °C. The working solution was made freshly by adding 200 µL of the stock solution to 25 mL growth media. After 2–4 h incubation time, viability was estimated by measuring the fluorescence using a 540/35 excitation filter and a 590/20 emission on a Spark® microplate reader (Tecan, Zürich, Switzerland). […]

[2] = tested on: Pfa1 Gpx4−/− overexpressing chimeric FSP1 C5; test: Cell viability (Alamar blue), chimeric construct C5; conditions: Mus musculus; chimeric construct C5 (human residues 241 to 300); x axis iFSP1 (μM); read-out: IC50 (dose-response toxicity)
Method: as §1, §2

[3] = tested on: Pfa1 Gpx4−/− overexpressing mFSP1 K319Q; test: Cell viability (Alamar blue), mFSP1 K319Q; conditions: Mus musculus, x axis iFSP1 (μM), read-out: IC50 (dose-response toxicity)
Method: as §1
(§3) Cell viability assays. Alamar Blue method: Cells were seeded on 96-well plates (2000 cells per well) and treated with the compounds RSL3, iFSP1 and (liproxstatin-1) after plating. Cell viability was assessed 48 h (unless stated otherwise) after treatment using Alamar Blue as an indicator of viable cells. Alamar blue solution was made by dissolving of 1 g resazurin sodium salt (Thermo Fischer) in 200 mL sterile PBS and sterile filtrated through a 0.22 µm filter. Stock solutions were stored at 4 °C. The working solution was made freshly by adding 200 µL of the stock solution to 25 mL growth media. After 2–4 h incubation time, viability was estimated by measuring the fluorescence using a 540/35 excitation filter and a 590/20 emission on a Spark® microplate reader (Tecan, Zürich, Switzerland).

[4] = tested on: Pfa1 Gpx4−/− overexpressing hFSP1 F360L; test: Cell viability (Alamar blue), hFSP1 F360L
Method: as §1, §3

Q: `Cc1ccc(-c2c(C#N)c(N)n3c(nc4ccccc43)c2C#N)cc1` [iFSP1] was tested. Which IC50 [1] did it give?
A: 8.96 µM

Q: What about the IC50 [2] of the same compound?
A: 6.82 µM

Q: What about the IC50 [3] of the same compound?
A: 5.62 µM

Q: And the “capacity to induce ferroptosis” value [4]?
A: completely abolished the capacity of iFSP1 to induce ferroptosis

Q: What about the IC50 ([4]; Mus musculus, x axis iFSP1 (μM), read-out: IC50 (dose-response toxicity)) of the same compound?
A: 6.18 µM
